Laboratory results from ChEMBL document CHEMBL1201862, “PubChem BioAssay data set” (2004).
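48-hour exposure; five concentrations; linearly interpolated endpoints. GI50: concentration for 50% inhibition of growth.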 Calls of active or inactive are those of the source. Cut-off read from the data, not from the text of the source: active = GI50 up to about 1.1 µM and inactive = higher.

Experiments:
Assay in all cases: NCI anticancer screen, dose series, 48 h
786-0 = test system: 786-0
CCRF-CEM = test system: CCRF-CEM
HOP-92 = test system: HOP-92
HT-29 = test system: HT-29
K562 = test system: K562
NCI-H226 = test system: NCI-H226
OVCAR-5 = test system: OVCAR-5
SF-295 = test system: SF-295
SK-MEL-2 = test system: SK-MEL-2
SK-OV-3 = test system: SK-OV-3
SN12C = test system: SN12C
SNB-19 = test system: SNB-19
SR = test system: SR
U-251 = test system: U-251
UACC-257 = test system: UACC-257
A549 = test system: A549
CAKI-1 = test system: CAKI-1
DU-145 = test system: DU-145
MDA-MB-435 = test system: MDA-MB-435

Measured: GI50

COc1cc2c(cc1OC)C1c3ccccc3C(C#N)(C2)N(C(=O)c2ccccc2)C1O (stereo not drawn)
inactive: 786-0 > 100 µM | CCRF-CEM 52.1 µM | HOP-92 > 100 µM | HT-29 > 100 µM | K562 36.5 µM | NCI-H226 61.1 µM | OVCAR-5 > 100 µM | SF-295 > 100 µM | SK-MEL-2 56.5 µM | SK-OV-3 77.3 µM | SN12C > 100 µM | SNB-19 59 µM | SR 79.8 µM | U-251 56.5 µM | UACC-257 60.7 µM

CCN(c1n[n+]2c(-c3ccccc3)csc2s1)c1n[n+]2c(-c3ccccc3)csc2s1
inactive: 786-0 > 100 µM | A549 > 100 µM | CCRF-CEM 32.5 µM | HOP-92 > 100 µM | HT-29 66.1 µM | K562 17.5 µM | NCI-H226 > 100 µM | OVCAR-5 > 100 µM | SF-295 > 100 µM | SK-MEL-2 44.1 µM | SK-OV-3 > 100 µM | SN12C > 100 µM | SNB-19 > 100 µM | SR 20.5 µM | U-251 > 100 µM | UACC-257 36.9 µM

N#C/C(=C\c1cc(Br)c(O)c(Br)c1)c1ccccn1
inactive: 786-0 49.5 µM | A549 59.6 µM | CAKI-1 > 100 µM | CCRF-CEM 34.1 µM | DU-145 > 100 µM | HOP-92 14.5 µM | HT-29 59 µM | K562 34.6 µM | NCI-H226 30.4 µM | OVCAR-5 51.4 µM | SF-295 16 µM | SK-MEL-2 47.9 µM | SK-OV-3 32.5 µM | SN12C 46.7 µM | SNB-19 46.1 µM | SR > 100 µM | U-251 22.9 µM | UACC-257 35.4 µM

CC1(C)C(=O)C=CC2(C)C1CC(O)C1(C)C2CCC2(C)C(c3ccoc3)OC(=O)C3OC321 (stereo not drawn)
inactive: 786-0 12.2 µM | A549 19.2 µM | CAKI-1 11.7 µM | CCRF-CEM 23.1 µM | DU-145 16.4 µM | HOP-92 16.4 µM | HT-29 17.1 µM | K562 24.8 µM | MDA-MB-435 23.7 µM | NCI-H226 14.2 µM | OVCAR-5 32.3 µM | SF-295 20 µM | SK-MEL-2 11.8 µM | SK-OV-3 23.7 µM | SN12C 18.7 µM | SNB-19 18.9 µM | U-251 17.4 µM | UACC-257 > 10 µM

O=[N+]([O-])c1ccc(-n2nnc(C3=NCCN3)c2-c2ccccc2)cc1
inactive: 786-0 > 100 µM | A549 > 100 µM | CAKI-1 > 100 µM | CCRF-CEM > 100 µM | HOP-92 > 100 µM | HT-29 > 100 µM | K562 > 100 µM | NCI-H226 > 100 µM | OVCAR-5 > 100 µM | SF-295 > 100 µM | SK-MEL-2 > 100 µM | SK-OV-3 > 100 µM | SN12C > 100 µM | SNB-19 > 100 µM | SR > 100 µM | U-251 > 100 µM | UACC-257 > 100 µM

COC(=O)c1c[nH]c2nc(N3CCOCC3)nn2c1=O
inactive: 786-0 > 100 µM | A549 > 100 µM | CAKI-1 > 100 µM | CCRF-CEM > 100 µM | HOP-92 > 100 µM | HT-29 > 100 µM | K562 > 100 µM | NCI-H226 > 100 µM | OVCAR-5 > 100 µM | SF-295 > 100 µM | SK-MEL-2 > 100 µM | SK-OV-3 > 100 µM | SN12C > 100 µM | SNB-19 > 100 µM | SR > 100 µM | U-251 > 100 µM | UACC-257 > 100 µM

O=C(c1ccccc1)C1N=NN(Cc2ccccc2[N+](=O)[O-])C1C(=O)c1ccccc1 (stereo not drawn)
inactive: 786-0 > 100 µM | A549 37.8 µM | CAKI-1 > 100 µM | CCRF-CEM > 100 µM | HOP-92 > 100 µM | HT-29 > 100 µM | K562 > 100 µM | NCI-H226 > 100 µM | OVCAR-5 > 100 µM | SF-295 > 100 µM | SK-MEL-2 > 100 µM | SK-OV-3 87.3 µM | SNB-19 > 100 µM | SR > 100 µM | U-251 > 100 µM | UACC-257 > 100 µM

CC1=C(C(=O)NCc2ccccc2)C(c2ccc(Cl)c(Cl)c2)C(C(=O)NCc2ccccc2)=C(C)N1
inactive: 786-0 > 100 µM | A549 > 100 µM | CCRF-CEM > 100 µM | HOP-92 > 100 µM | HT-29 > 100 µM | K562 > 100 µM | NCI-H226 > 100 µM | OVCAR-5 > 100 µM | SF-295 > 100 µM | SK-MEL-2 > 100 µM | SN12C > 100 µM | SNB-19 > 100 µM | SR > 100 µM | U-251 > 100 µM | UACC-257 > 100 µM

C=CCN(C(=O)OC(C)(C)C)C1=CC2C(C)=CN(S(=O)(=O)c3ccccc3)C2C(OCc2ccccc2)=C1 (stereo not drawn)
inactive: 786-0 > 100 µM | A549 > 100 µM | CAKI-1 > 100 µM | CCRF-CEM > 100 µM | DU-145 > 100 µM | HT-29 13.4 µM | K562 7.59 µM | MDA-MB-435 > 100 µM | NCI-H226 > 100 µM | OVCAR-5 > 100 µM | SF-295 > 100 µM | SK-MEL-2 > 100 µM | SK-OV-3 > 100 µM | SN12C > 100 µM | U-251 > 100 µM | UACC-257 > 100 µM
